Experimental findings from US8198284B2, “Treatment of neurodegenerative disorders with thiourea compounds” (National Health Research Institutes, priority 2008, dated 2012) are described below.

Type in all cases: cell-based
The test system of one assay is iNOS. Put plainly: Anti-inflammatory activity: LPS-induced iNOS expression (Western blotting). On the procedure: (§1) Compounds were evaluated for their efficacy in suppressing microglial immune activation by measuring their potency against LPS-induced expression of iNOS and COX-2 and IL-6 secretion. Microglia and Raw 264.7 cells (a microglia-like cell line) were pretreated with a test compound at various doses for 1 hr followed by 24 hr treatment of LPS (10 ng/ml). Cell lysates were subjected to Western blotting for iNOS and COX-2 evaluation. IL-6 secretion was measured from resulting culture medium by ELISA.

Assay [1] relates to Hippocampal organotypic cultures. Nature of the assay: Neuro-protection against LPS toxicity in hippocampal organotypic cultures. Particulars: pre-treatment, then LPS 10 ng/mL for 24 hr; Western blotting. As to the method:
Compounds were evaluated for their efficacy in suppressing microglia-mediated neurotoxicity. Hippocampal organotypic cultures were established to serve as an ex vivo model for evaluation of hippocampal functions. Pre-treatment of the cultures with a test compound was followed by addition of LPS (10 ng/mL) for 24 hr. Hippocampal tissues were harvested and subjected to Western blotting for measuring synaptophysin and post synaptic density protein (PSD)95 levels, the indications for neuronal synatic functions.

A further assay relates to Microglia. Put plainly: Enhancement of microglial Aβ clearance and phagocytosis in vitro. As to conditions: n=6, p<0.001. On the procedure: Compounds were evaluated for their efficacy in enhancing microglial phagocytosis of Aβ (or Aβ clearance). […] Lipopolysaccharide (LPS) at 10 ng/mL was added as a positive control, which is known to increase Aβ uptake. The culture medium was subjected to Western blotting for evaluating residual Aβ left in the medium. The mean values of fluorescent intensity measured by flow cytometer were compared between cells pretreated with the test compound and the ones in non-treated controls.

The next assay concerns IL-6. Nature of the assay: Anti-inflammatory activity: LPS-induced IL-6 secretion (ELISA). As to the method:
as §1

The next assay concerns COX-2. Nature of the assay: Anti-inflammatory activity: LPS-induced COX-2 expression (Western blotting). As to the method: as §1
For orientation: A western blot detects proteins with antibodies after separation by electrophoresis.

Setting [2] is: dose dependent, β-actin unchanged.

The term IC50 denotes the concentration at which inhibition is half-maximal. Regarding `NC(=S)Nc1cccc(OCCCCCNC(=S)Nc2cccc3ccccc23)c1` [Compound 1, 1-naphthalen-1-yl-3-[5-(3-thioureido-phenoxy)-pentyl]-thiourea], the 50% inhibitory concentration (IC50) with iNOS (Mus musculus, RAW264.7, 1 hr pretreatment, then LPS 10 ng/ml for 24 hr, microglia and Raw 264.7 cells, read-out: Effective dose to show at least 50% suppression (IC50) for iNOS) worked out at 1 µM; in the assay with IL-6 (1 hr pretreatment, then LPS 10 ng/ml for 24 hr, secretion by microglia, read-out: Effective dose to show at least 50% suppression (IC50) for IL-6), 20 µM; with COX-2 (Mus musculus, RAW264.7, 1 hr pretreatment, then LPS 10 ng/ml for 24 hr, microglia and Raw 264.7 cells, read-out: Effective dose to show at least 50% suppression (IC50) for COX-2) it was 50 µM. Further, in the assay with iNOS (setting [2]), the “LPS-induced iNOS expression” value is “significant suppression”. The “LPS-induced reduction of PSD95 level” value in assay [1] is listed as “prevented LPS-induced reduction”. The “LPS-induced reduction of synaptophysin level” value in assay [1] was “prevented LPS-induced reduction”. Further, the “increase of Aβ uptake as compared to the controls” value with Microglia (compound at 10 μM) is recorded as “approximately 29%”; in the assay on Microglia (compound at 20 μM), approximately 44%; in the assay with Microglia (compound at 50 μM) it was approximately 128%. The “LPS-induced IL-6 secretion by microglia” value in the assay with IL-6 (dose dependent) is “inhibited”. In addition, the “LPS-induced COX-2 expression” value with COX-2 (setting [2]) is on record as “significant suppression”.
